Measurements: publication PMC11375794, “Discovery of new Hsp90–Cdc37 protein–protein interaction inhibitors: in silico screening and optimization of anticancer activity” (RSC Advances, 2024)

Experiments:
Assay type in all cases: cell-based
[1] = tested on: MCF-7 breast cancer cell line; assay: MTS cell viability (antiproliferative) assay in MCF-7; conditions: MTS assay, 72 hours, mean ± SD; for IC50: Homo sapiens, MCF7, 72 h
Protocol: (§1) Hormone-positive breast cancer cell line MCF-7 (ATCC-HTB-22; ATCC) was grown in Dulbecco's Modified Eagle's Medium (DMEM), while Ewing sarcoma cell line SK-N-MC (a kind gift from Beat Schäfer) and THP-1 (ATCC-TIB-202; ATCC) cells were grown in Roswell Park Memorial Institute (RPMI) 1640. The medium was supplemented with 10% heat-inactivated fetal bovine serum (Gibco, Thermo Fisher Scientific, Waltham, MA, USA), 100 U per mL penicillin, 100 μg per mL streptomycin, and 2 mM L-glutamine (all from Sigma-Aldrich, St. Louis, MO, USA). All cell lines were incubated at 37 °C in a 5% CO2 atmosphere.
(§2) The antiproliferative activity of the compounds was evaluated against MCF-7 (ATCC-HTB-22; ATCC), SK-N-MC (a kind gift from Beat Schäfer) and THP-1 (ATCC-TIB-202; ATCC) cancer cell lines using the MTS assay (Promega, Madison, WI, USA). Cells were seeded in 96-well plates at a density of 2 × 10^4 cells per mL in 100 μL of growth medium for THP-1 and were treated with compounds and controls directly, while 3 × 10^3 cells per mL for MCF-7 and SK-N-MC were seeded in 100 μL of growth medium and allowed to adhere overnight following the treatment. In all cases the cells were treated with respective newly prepared compounds, positive controls (17-DMAG for MCF-7 and SK-N-MC; PU-H71 for THP-1) and a vehicle control (0.5% DMSO). The incubation time after treatment was 72 hours, then CellTiter96® Aqueous One Solution Reagent (Promega, Madison, WI, USA) was added to each well. Following a 3 hours incubation, absorbance was measured at 492 nm using BioTek's Synergy™ 4 Hybrid Microplate Reader (Winooski, VT, USA). The measurements were performed in two biological repetitions and each time the experiment was performed in a triplicate. The IC50 values, representing the concentration of inhibitor required for half-maximal inhibition, are the average of three independent experiments and were calculated using GraphPad Prism 9.5.0 software (San Diego, CA, USA).

[2] = tested on: Ewing sarcoma cell line SK-N-MC; assay: MTS cell viability (antiproliferative) assay in SK-N-MC; conditions: 72 hours, mean ± SD; for IC50: Homo sapiens, SK-N-MC
Protocol: as §1, §2

leukemia cell line THP-1 = assay: MTS cell viability (antiproliferative) assay in THP-1; conditions: Homo sapiens, THP-1, 72 hours, mean ± SD
Protocol: as §1, §2

IC50 [1] [µM]	Compound	also measured
27.3 ± 2	CN(CCc1ccccc1)C(=O)c1csc(Nc2cc(N3CCNCC3)ncn2)n1 [Compound 8b, N-Methyl-N-phenethyl-2-((6-(piperazin-1-yl)pyrimidin-4-yl)amino)thiazole-4-carboxamide]	–
17.9 ± 0.5	O=C(NCCc1ccccc1)c1ccc(Nc2cc(N3CCNCC3)ncn2)cc1 [Compound 13f, N-Phenethyl-4-((6-(piperazin-1-yl)pyrimidin-4-yl)amino)benzamide]	–
> 50	O=C(NCCOc1ccccc1)c1ccc(Nc2cc(N3CCC(O)CC3)ncn2)cc1 [Compound 21, 4-((6-(4-Hydroxypiperidin-1-yl)pyrimidin-4-yl)amino)-N-(2-phenoxyethyl)benzamide]	–
14.5 ± 4.7	CN(Cc1ccccc1)C(=O)c1ccc(Nc2cc(N3CCNCC3)ncn2)cc1 [Compound 13h, N-Benzyl-N-methyl-4-((6-(piperazin-1-yl)pyrimidin-4-yl)amino)benzamide]	–
47.4 ± 0.9	COc1ccc(OCCN(C)C(=O)c2csc(Nc3cc(C4CCCN(CC#N)C4)nc(C)n3)n2)cc1 (centres unmarked) [Compound 2]	–
> 50	O=C(NCCOc1ccccc1)c1ccc(Nc2cc(N3CCOCC3)ncn2)cc1 [Compound 20, 4-((6-Morpholinopyrimidin-4-yl)amino)-N-(2-phenoxyethyl)benzamide]	–
20.6 ± 3	O=C(NCCc1ccccc1)c1cccc(Nc2cc(N3CCCC3)ncn2)c1 [Compound 11a, N-Phenethyl-3-((6-(pyrrolidin-1-yl)pyrimidin-4-yl)amino)benzamide]	–
> 50	CN(CCOc1ccccc1)C(=O)c1cccc(Nc2cc(N3CCNCC3)ncn2)c1 [Compound 13e, N-Methyl-N-(2-phenoxyethyl)-3-((6-(piperazin-1-yl)pyrimidin-4-yl)amino)benzamide]	–
> 50	N#CCN1CCN(c2cc(Nc3ccc(C(=O)NCCOc4ccccc4)cc3)ncn2)CC1 [Compound 24, 4-((6-(4-(Cyanomethyl)piperazin-1-yl)pyrimidin-4-yl)amino)-N-(2-phenoxyethyl)benzamide]	MCF-7 IC50 [1]: loss of activity
> 50	CN(CCc1ccccc1)C(=O)c1cccc(Nc2cc(N3CCCCC3)ncn2)c1 [Compound 14, N-Methyl-N-phenethyl-3-((6-(piperidin-1-yl)pyrimidin-4-yl)amino)benzamide]	–
31.9 ± 2.1	CN(Cc1ccccc1)C(=O)c1cccc(Nc2cc(N3CCNCC3)ncn2)c1 [Compound 13c, N-Benzyl-N-methyl-3-((6-(piperazin-1-yl)pyrimidin-4-yl)amino)benzamide]	–
29.1 ± 5	CN(CCc1ccccc1)C(=O)c1cccc(Nc2cc(N3CCCC3)ncn2)c1 [Compound 11d, N-Methyl-N-phenethyl-3-((6-(pyrrolidin-1-yl)pyrimidin-4-yl)amino)benzamide]	–
> 50	O=C(NCCOc1ccccc1)c1ccc(Nc2cc(N3CCCC3)ncn2)cc1 [Compound 11g, N-(2-Phenoxyethyl)-4-((6-(pyrrolidin-1-yl)pyrimidin-4-yl)amino)benzamide]	SK-N-MC IC50 [2]: inactive; IC50 [2]: > 50 µM; IC50 (leukemia cell line THP-1): > 50 µM
18 ± 1.5	CN(CCc1ccccc1)C(=O)c1ccc(Nc2cc(N3CCCC3)ncn2)cc1 [Compound 11i, N-Methyl-N-phenethyl-4-((6-(pyrrolidin-1-yl)pyrimidin-4-yl)amino)benzamide]	–
> 50	CN(CCc1ccccc1)C(=O)c1cccc(Nc2cc(N3CCNCC3)ncn2)c1 [Compound 13d, N-Methyl-N-phenethyl-3-((6-(piperazin-1-yl)pyrimidin-4-yl)amino)benzamide]	–
38.3 ± 4.9	CN(CCc1ccccc1)C(=O)c1ccc(Nc2cc(N3CCNCC3)ncn2)cc1 [Compound 13i, N-Methyl-N-phenethyl-4-((6-(piperazin-1-yl)pyrimidin-4-yl)amino)benzamide]	–
> 50	CN(CCc1ccccc1)C(=O)c1cccc(Nc2cc(N3CCC(N)CC3)ncn2)c1 [Compound 18, 3-((6-(4-Aminopiperidin-1-yl)pyrimidin-4-yl)amino)-N-methyl-N-phenethylbenzamide]	MCF-7 IC50 [1]: not active

IC50 [1] [µM]	Compound	also measured
> 50	O=C(NCCc1ccccc1)c1ccc(Nc2cc(N3CCCC3)ncn2)cc1 [Compound 11f, N-Phenethyl-4-((6-(pyrrolidin-1-yl)pyrimidin-4-yl)amino)benzamide]	–
> 50	NC1CCN(c2cc(Nc3ccc(C(=O)NCCOc4ccccc4)cc3)ncn2)CC1 [Compound 23, 4-((6-(4-Aminopiperidin-1-yl)pyrimidin-4-yl)amino)-N-(2-phenoxyethyl)benzamide]	–
17.1 ± 1.4	CN(Cc1ccccc1)C(=O)c1csc(Nc2cc(N3CCNCC3)ncn2)n1 [Compound 8a, N-Benzyl-N-methyl-2-((6-(piperazin-1-yl)pyrimidin-4-yl)amino)thiazole-4-carboxamide]	–
31.9 ± 3.2	O=C(NCCc1ccccc1)c1cccc(Nc2cc(N3CCNCC3)ncn2)c1 [Compound 13a, N-Phenethyl-3-((6-(piperazin-1-yl)pyrimidin-4-yl)amino)benzamide]	–
20.8 ± 2.2	CN(Cc1ccccc1)C(=O)c1csc(Nc2cc(N3CCCC3)ncn2)n1 [Compound 6a, N-Benzyl-N-methyl-2-((6-(pyrrolidin-1-yl)pyrimidin-4-yl)amino)thiazole-4-carboxamide]	–
> 50	O=C(NCCOc1ccccc1)c1ccc(Nc2cc(N3CCCCC3)ncn2)cc1 [Compound 19, N-(2-Phenoxyethyl)-4-((6-(piperidin-1-yl)pyrimidin-4-yl)amino)benzamide]	–
18.3 ± 7	CN(Cc1ccccc1)C(=O)c1ccc(Nc2cc(N3CCCC3)ncn2)cc1 [Compound 11h, N-Benzyl-N-methyl-4-((6-(pyrrolidin-1-yl)pyrimidin-4-yl)amino)benzamide]	–
14.6 ± 4.5	O=C(NCCOc1ccccc1)c1cccc(Nc2cc(N3CCCC3)ncn2)c1 [Compound 11b, N-(2-Phenoxyethyl)-3-((6-(pyrrolidin-1-yl)pyrimidin-4-yl)amino)benzamide]	IC50 [2]: 26.9 ± 1 µM; IC50 (leukemia cell line THP-1): > 50 µM
34.9 ± 2.7	COc1ccccc1OCCN(C)C(=O)c1csc(Nc2cc(C3CCCN(CC#N)C3)nc(C)n2)n1 (centres unmarked) [Compound 3]	–
22.5 ± 3.3	O=C(NCCOc1ccccc1)c1cccc(Nc2cc(N3CCNCC3)ncn2)c1 [Compound 13b, N-(2-Phenoxyethyl)-3-((6-(piperazin-1-yl)pyrimidin-4-yl)amino)benzamide]	IC50 [2]: 22.2 ± 0.2 µM; IC50 (leukemia cell line THP-1): > 50 µM
34.1 ± 2.9	CN(CCOc1ccccc1)C(=O)c1cccc(Nc2cc(N3CCCC3)ncn2)c1 [Compound 11e, N-Methyl-N-(2-phenoxyethyl)-3-((6-(pyrrolidin-1-yl)pyrimidin-4-yl)amino)benzamide]	–
20.8 ± 2.7	CN(CCOc1ccccc1)C(=O)c1ccc(Nc2cc(N3CCNCC3)ncn2)cc1 [Compound 13j, N-Methyl-N-(2-phenoxyethyl)-4-((6-(piperazin-1-yl)pyrimidin-4-yl)amino)benzamide]	–
15.2 ± 0.7	CN(CCc1ccccc1)C(=O)c1csc(Nc2cc(N3CCCC3)ncn2)n1 [Compound 6b, N-Methyl-N-phenethyl-2-((6-(pyrrolidin-1-yl)pyrimidin-4-yl)amino)thiazole-4-carboxamide]	–
36.7 ± 6.1	CN(Cc1ccccc1)C(=O)c1cccc(Nc2cc(N3CCCC3)ncn2)c1 [Compound 11c, N-Benzyl-N-methyl-3-((6-(pyrrolidin-1-yl)pyrimidin-4-yl)amino)benzamide]	–
28.1 ± 1.4	CN(CCOc1ccccc1)C(=O)c1csc(Nc2cc(N3CCCC3)ncn2)n1 [Compound 6c, N-Methyl-N-(2-phenoxyethyl)-2-((6-(pyrrolidin-1-yl)pyrimidin-4-yl)amino)thiazole-4-carboxamide]	IC50 [2]: 26.2 ± 0.4 µM; IC50 (leukemia cell line THP-1): > 50 µM
> 50	CN(CCOc1ccccc1)C(=O)c1ccc(Nc2cc(N3CCCC3)ncn2)cc1 [Compound 11j, N-Methyl-N-(2-phenoxyethyl)-4-((6-(pyrrolidin-1-yl)pyrimidin-4-yl)amino)benzamide]	–
